Structures are written as SMILES.

Data on seven molecules can be found in patent US8748369B2, “Use of targeted nitroxide agents in bone healing” (University of Pittsburgh-Of the Commonwealth System of …, priority 2009, dated 2014).

The test system of series [1] is mitochondria of 32D c13 hemopoietic cells. Briefly: Mass spectrometry of compounds in mitochondria isolated from 32D cl3 cells. Format: cell-based, mouse. Conditions: 100 μM; for permeation of the mitochondrial membrane (unconjugated compound): two hours at 37° C.; for Fmole/l 0 M mitochondrial protein (relative quantification of conjugate concentration at the target site): mouse, 2 h. As to the method:
An unconjugated and conjugated NOS antagonist, (AMT, 100 μM) and an unconjugated and conjugated nitroxide derivative (4-amino-TEMPO, 100 μM) were incubated for two hours at 37° C. with 32D c13 hemopoietic cells.
Following incubation, the cells were lysed and the mitochondria isolated for a mass spectrometry analysis where compounds isolated from mitochondria were identified as Na+ adducts. […] Thus, the targeting peptides successfully direct a NOS antagonist and a nitroxide to the mitochondria.
Quantitative mass spectrometry studies were used to compare the effectiveness of several AMT peptide conjugates in permeating the mitochondrial membrane, specifically XJB-5-234, XJB-5-133, XJB-5-241, and XJB-5-127. The Fmole/10 μM mitochondrial protein ratio provides a relative quantification of conjugate concentration at the target site.

For series [2], the system named is mouse embryonic cells (MEC), mitochondria. Briefly: EPR-based analysis of integration and reduction of nitroxide conjugates in MECs. Conditions: MECs incubated with 10 μM compound. Format: cell-based. Here is the method: Electron paramagnetic resonance (“EPR”) spectroscopy was used to monitor the cellular delivery of compounds 5a and 5b shown in FIG. 3 in mouse embryonic cells (“MEC”).
The following conditions were used during the EPR-based analysis of the integration and reduction of nitroxide Gramicidin S-peptidyl conjugates in MECs. The MECs at a concentration of 10 million MECs per mL were incubated with 10 μM of 4-AT and compound 5a, respectively. Recovered nitroxide radicals in whole cells, mitochondria, and cytosol fractions were resuspended in phosphate buffer saline (“PBS”) in the presence and absence, respectively, of 2 μM K3Fe(CN)6.

Series [3] concerns mouse embryonic cells (MEC). Briefly: ActD-induced apoptosis in MECs (PS externalization, caspase-3, DNA fragmentation). Format: cell-based. The settings on record: low concentrations (10 μM). An excerpt:
Cells that annexin V-positive and PI-negative were considered apoptotic.

For series [4], the system named is 32D cl 3 murine hematopoietic cells. The series is described as follows: Irradiation survival curves of 32D cl 3 cells. The format is cell-based, mouse. The settings on record: cells incubated in compound. Here is the method: FIG. 16 illustrates the effect of GS conjugated nitroxide, XJB-5-125, on gamma-irradiation dose survival curves of 32D cl 3 murine hematopoietic cells.
Irradiation survival curves were performed on cells from the 32D cl 3 mouse hematopoietic progenitor cell line, incubated in 10 μM JP4-039 for 1 hour before irradiation, or plated in methycellulose containing 10 μM JP4-030 after irradiation. Cells were irradiated from 0 to 8 Gy, plated in 0.8% methycellulose containing media, and incubated for 7 days at 37° C. Colonies of greater than 50 cells were counted and data analyzed by linear quadratic and single-hit, multi-target models.

Series [5] has as its system rat ileal mucosal permeability following hemorrhagic shock. Briefly: Intestinal mucosal permeability assay (FD4) after hemorrhagic shock. Format: in vivo. The settings on record: intraluminal. Here is the method: Intestinal Mucosal Permeability Assay. Animals were allowed access to water but not food for 24 h prior to the experiment in order to decrease the volume of intestinal contents. The rats were instrumented as described above. A midline laparotomy was performed and the small intestine was exteriorized from the duodenojejunal junction to the ileocecal valve. A small incision was made on the antimesenteric aspect of the proximal small intestine and saline solution (1.5 ml) was injected. The bowel was ligated proximally and distally to the incision with 4-0 silk (Look, Reading, Pa.).
The small intestine was compressed gently in aboral direction along its length to displace intestinal contents into the colon. Starting 5 cm from the ileocecal valve, the ileum was partitioned into six contiguous water-tight segments. […]
The remaining four other segments were injected with solutions containing either 4-hydroxy-2,2,6,6-tetramethylpiperidine-N-oxyl (TEMPOL) or one of the Gramicidin S-based compounds. Four different final concentrations of TEMPOL in normal saline were evaluated: 0.1, 1, 5 and 20 mM. […]
Fluorescence of FD4 in the solution inside the beaker and within each gut sac was measured using a fluorescence spectrophotometer (LS-50, Perkin-Elmer, Palo Alto, Calif.) at an excitation wavelength of 492 nm and an emission wavelength of 515 nm. […]

For series [6], the system named is rats subjected to volume-controlled hemorrhagic shock. The series is described as follows: Survival of rats subjected to volume-controlled hemorrhagic shock. Format: in vivo, rat. The settings on record: 2 μmol/kg intravenous, no resuscitation. Here is the method: Survival of Rats Subjected to Volume-controlled Hemorrhagic Shock. Following surgical preparation and a 5-min stabilization period to obtain baseline readings, rats were subjected to hemorrhagic shock. Bleeding was carried out in 2 phases.
Initially, 21 ml/kg of blood was withdrawn over 20 min. Immediately thereafter, an additional 12.5 ml/kg of blood was withdrawn over 40 min. Thus, hemorrhage occurred over a total period of 60 min and the total blood loss was 33.5 ml/kg or approximately 55% of the total blood volume. Rats were randomly assigned to receive XJB-5-131 (2 μmmol/kg) or its vehicle, a 33:67 (v/v) mixture of DMSO and normal saline. XJB-5-131 solution or vehicle alone was administered as a continuous infusion during the last 20 min of the hemorrhage period. The total volume of fluid infused was 2.8 ml/kg and it was administered intravenously using a syringe pump (KD100, KD Scientific, New Hope, Pa.). […] At the end of the 6 hour observation period, animals that were still alive were euthanized with an overdose of KCl.
Blood pressure was recorded continuously using a commercial strain-gauge transducer, amplifier, and monitor (590603a, SpaceLabs, Redmond, Wash.). […] Hemoglobin concentration [Hb], lactate and glucose concentration were determined using an auto-analyzer (Model ABL 725, Radiometer Copenhagen, Westlake, Ohio). […]

Regarding `CC1CCN=C(N)S1` (stereo not drawn) [AMT, 2-amino-6-methyl-thiazine, reference compound], the “permeation of the mitochondrial membrane (unconjugated compound)” value in series [1] is on record as “do not enter the mitochondria membrane in substantial quantities”.
For `CC1(C)CC(N)CC(C)(C)N1[O]` [Compound 4-AT, 4-amino-TEMPO, reference compound], in series [2], the “integration into cells and mitochondria (EPR signal of nitroxide radicals)” value is “did not effectively permeate cells or the mitochondria”. Further, the “protection of MECs against ActD-induced apoptosis” value in series [3] is “afforded no protection”. Further, the “permeation of the mitochondrial membrane (unconjugated compound)” value in series [1] was “only permeate the mitochondrial membrane with the assistance of the attached GS-derived targeting sequence”.
As to `CC1(C)CC(O)CC(C)(C)N1[O]` [TEMPOL, 4-hydroxy-2,2,6,6-tetramethylpiperidine-N-oxyl, reference compound], the “Do of gamma-irradiation survival curve” value in series [4] was found to be 1.209 Gy.
With `CC(C)C[C@@H](/C=C/[C@H](Cc1ccccc1)C(=O)N1CCC[C@H]1C(=O)N[C@H](C(=O)N[C@@H](CCCNC(=O)OCc1ccccc1)C(=O)NC1CC(C)(C)N([O])C(C)(C)C1)C(C)C)NC(=O)OC(C)(C)C` [XJB-5-131], the “integration into cells and mitochondria (EPR signal of nitroxide radicals)” value was “concentrated in the mitochondria” in series [2]; “integration and one-electron reduction” in series [2] (listed as 5a). Also, the “hemorrhagic shock-induced mucosal hyperpermeability relative to control value” in series [5] was “approximately 60%”. Also, the survival versus vehicle result in series [6] is on record as “survived significantly longer”.
Take `CC(C)C[C@@H](/C=C/[C@H](Cc1ccccc1)C(=O)N1CCC[C@H]1C(=O)N[C@H](C(=O)N[C@@H](CCCNC(=O)OCc1ccccc1)C(=O)NC1=NCCC(C)S1)C(C)C)NC(=O)OC(C)(C)C` (stereo partly drawn) [XJB-5-133, Boc-Leu-ψ[(E)-CH═CH]-^DPhe-Pro-Val-Orn(Cbz)-AMT]: the “Fmole/l 0 M mitochondrial protein (relative quantification of conjugate concentration at the target site)” value in series [1] is 89.8 Fmole/l 0 M mitochondrial protein.
Still for that read-out and setting: then `CC(C)C[C@@H](/C=C/[C@H](Cc1ccccc1)C(=O)NC1=NCCC(C)S1)NC(=O)OC(C)(C)C` (stereo partly drawn) [XJB-5-234, Boc-Leu-ψ[(E)-CH═CH]-^DPhe-AMT], with 1.45 Fmole/l 0 M mitochondrial protein; and `C/C(=C\[C@H](Cc1ccccc1)C(=O)N1CCC[C@H]1C(=O)N[C@H](C(=O)N[C@@H](CCCNC(=O)OCc1ccccc1)C(=O)NC1=NCCC(C)S1)C(C)C)[C@H](CC(C)C)NC(=O)OC(C)(C)C` (stereo partly drawn) [XJB-5-241, Boc-Leu-104 [(E)-C(CH3)═CH]-^DPhe-Pro-Val-Orn(Cbz)-AMT], with 103.3 Fmole/l 0 M mitochondrial protein.
